# Measurements: paper PMC9963398, “Discovery of New Quinolone-Based Diarylamides as Potent B-RAF^V600E/C-RAF Kinase Inhibitors Endowed with Promising In Vitro Anticancer Activity” (International Journal of Molecular Sciences, 2023)
# Experiments:
# [1] = tested on: ACHN; assay: NCI-60 five-dose SRB assay; type: cell-based; conditions: Homo sapiens, Renal cancer, five-dose test
# Protocol: (§1) The anticancer screening of target compounds over a full panel of 60 human cancer cell lines was carried out using Sulforhodamine B (SRB) assay at the National Cancer Institute (NCI), Bethesda, Maryland, USA, employing the standard protocol.
# [2] = tested on: HCT-116; assay: NCI-60 five-dose SRB assay; type: cell-based; conditions: Homo sapiens; HCT-116, Colon cancer, five-dose test
# Protocol: as §1
# [3] = tested on: TK-10; assay: NCI-60 five-dose SRB assay; type: cell-based; conditions: Homo sapiens; TK-10, Renal cancer, five-dose test
# Protocol: as §1
# [4] = tested on: UACC-62; assay: NCI-60 five-dose SRB assay; type: cell-based; conditions: Homo sapiens; UACC-62, Melanoma, five-dose test
# Protocol: as §1
# [5] = tested on: SF-295; assay: NCI-60 five-dose SRB assay; type: cell-based; conditions: Homo sapiens; SF-295, CNS cancer, five-dose test
# Protocol: as §1
# [6] = tested on: SR; assay: NCI-60 five-dose SRB assay; type: cell-based; conditions: Homo sapiens, Leukemia, five-dose test
# Protocol: as §1
# [7] = tested on: CAKI-1; assay: NCI-60 five-dose SRB assay; type: cell-based; conditions: Homo sapiens; CAKI-1, Renal cancer, five-dose test
# Protocol: as §1
# [8] = tested on: OVCAR-5; assay: NCI-60 five-dose SRB assay; type: cell-based; conditions: Homo sapiens; OVCAR-5, Ovarian cancer, five-dose test
# Protocol: as §1
# [9] = tested on: HOP-92; assay: NCI-60 five-dose SRB assay; type: cell-based; conditions: Homo sapiens; HOP-92, NSCL cancer, five-dose test
# Protocol: as §1
# [10] = tested on: SK-MEL-5; assay: NCI-60 five-dose SRB assay; type: cell-based; conditions: Homo sapiens; SK-MEL-5, Melanoma, five-dose test
# Protocol: as §1
# [11] = tested on: NCI-H522; assay: NCI-60 five-dose SRB assay; type: cell-based; conditions: Homo sapiens; NCI-H522, NSCL cancer, five-dose test
# Protocol: as §1
# [12] = tested on: COLO 205; assay: NCI-60 five-dose SRB assay; type: cell-based; conditions: Homo sapiens; COLO 205, Colon cancer, five-dose test
# Protocol: as §1
# [13] = tested on: HCC-2998; assay: NCI-60 five-dose SRB assay; type: cell-based; conditions: Homo sapiens; HCC-2998, Colon cancer, five-dose test
# Protocol: as §1
# [14] = tested on: OVCAR-3; assay: NCI-60 five-dose SRB assay; type: cell-based; conditions: Homo sapiens; OVCAR-3, Ovarian cancer, five-dose test
# Protocol: as §1
# [15] = tested on: DU-145; assay: NCI-60 five-dose SRB assay; type: cell-based; conditions: Homo sapiens; DU-145, Prostate cancer, five-dose test
# Protocol: as §1
# [16] = tested on: SK-OV-3; assay: NCI-60 five-dose SRB assay; type: cell-based; conditions: Homo sapiens; SK-OV-3, Ovarian cancer, five-dose test
# Protocol: as §1
# [17] = tested on: NCI-H460; assay: NCI-60 five-dose SRB assay; type: cell-based; conditions: Homo sapiens; NCI-H460, NSCL cancer, five-dose test
# Protocol: as §1
# [18] = tested on: CCRF-CEM; assay: NCI-60 five-dose SRB assay; type: cell-based; conditions: Homo sapiens, Leukemia, five-dose test
# Protocol: as §1
# [19] = tested on: NCI-H226; assay: NCI-60 five-dose SRB assay; type: cell-based; conditions: Homo sapiens; NCI-H226, NSCL cancer, five-dose test
# Protocol: as §1
# [20] = tested on: MOLT-4; assay: NCI-60 five-dose SRB assay; type: cell-based; conditions: Homo sapiens; MOLT-4, Leukemia, five-dose test
# Protocol: as §1
# [21] = tested on: OVCAR-8; assay: NCI-60 five-dose SRB assay; type: cell-based; conditions: Homo sapiens; OVCAR-8, Ovarian cancer, five-dose test
# Protocol: as §1
# [22] = tested on: U251; assay: NCI-60 five-dose SRB assay; type: cell-based; conditions: Homo sapiens, U-251; U251, CNS cancer, five-dose test
# Protocol: as §1
# [23] = tested on: HS 578T; assay: NCI-60 five-dose SRB assay; type: cell-based; conditions: Homo sapiens, Breast cancer, five-dose test
# Protocol: as §1
# [24] = tested on: SF-539; assay: NCI-60 five-dose SRB assay; type: cell-based; conditions: Homo sapiens; SF-539, CNS cancer, five-dose test
# Protocol: as §1
# [25] = tested on: HL-60(TB); assay: NCI-60 five-dose SRB assay; type: cell-based; conditions: Homo sapiens, Leukemia, five-dose test
# Protocol: as §1
# [26] = tested on: A498; assay: NCI-60 five-dose SRB assay; type: cell-based; conditions: Homo sapiens; A498, Renal cancer, five-dose test
# Protocol: as §1
# [27] = tested on: UO-31; assay: NCI-60 five-dose SRB assay; type: cell-based; conditions: Homo sapiens; UO-31, Renal cancer, five-dose test
# Protocol: as §1
# [28] = tested on: HT29; assay: NCI-60 five-dose SRB assay; type: cell-based; conditions: Homo sapiens, HT-29; HT29, Colon cancer, five-dose test
# Protocol: as §1
# [29] = tested on: SN12C; assay: NCI-60 five-dose SRB assay; type: cell-based; conditions: Homo sapiens, Renal cancer, five-dose test
# Protocol: as §1
# [30] = tested on: IGROV1; assay: NCI-60 five-dose SRB assay; type: cell-based; conditions: Homo sapiens, IGROV-1; IGROV1, Ovarian cancer, five-dose test
# Protocol: as §1
# [31] = tested on: T-47D; assay: NCI-60 five-dose SRB assay; type: cell-based; conditions: Homo sapiens, T47D, Breast cancer, five-dose test
# Protocol: as §1
# [32] = tested on: SK-MEL-2; assay: NCI-60 five-dose SRB assay; type: cell-based; conditions: Homo sapiens; SK-MEL-2, Melanoma, five-dose test
# Protocol: as §1
# [33] = tested on: OVCAR-4; assay: NCI-60 five-dose SRB assay; type: cell-based; conditions: Homo sapiens; OVCAR-4, Ovarian cancer, five-dose test
# Protocol: as §1
# [34] = tested on: MDA-MB-435; assay: NCI-60 five-dose SRB assay; type: cell-based; conditions: Homo sapiens; MDA-MB-435, Melanoma, five-dose test
# Protocol: as §1
# [35] = tested on: NCI-H23; assay: NCI-60 five-dose SRB assay; type: cell-based; conditions: Homo sapiens; NCI-H23, NSCL cancer, five-dose test
# Protocol: as §1
# [36] = tested on: MCF7; assay: NCI-60 five-dose SRB assay; type: cell-based; conditions: Homo sapiens; MCF7, Breast cancer, five-dose test
# Protocol: as §1
# [37] = tested on: MDA-MB-231/ATCC; assay: cells; conditions: Homo sapiens
# Protocol: as §1
# [38] = tested on: PC-3; assay: cells; conditions: Homo sapiens
# Protocol: as §1
# [39] = tested on: MDA-MB-468; assay: cells; conditions: Homo sapiens
# Protocol: as §1
# [40] = target: C-RAF (Homo sapiens, UniProt P04049); assay: HotSpot kinase assay (RBC), C-RAF; conditions: for IC50: IC50 C-RAF, 10 µM ATP, 10-dose singlicate IC50 mode
# Chain of C-RAF (P04049 whole entry): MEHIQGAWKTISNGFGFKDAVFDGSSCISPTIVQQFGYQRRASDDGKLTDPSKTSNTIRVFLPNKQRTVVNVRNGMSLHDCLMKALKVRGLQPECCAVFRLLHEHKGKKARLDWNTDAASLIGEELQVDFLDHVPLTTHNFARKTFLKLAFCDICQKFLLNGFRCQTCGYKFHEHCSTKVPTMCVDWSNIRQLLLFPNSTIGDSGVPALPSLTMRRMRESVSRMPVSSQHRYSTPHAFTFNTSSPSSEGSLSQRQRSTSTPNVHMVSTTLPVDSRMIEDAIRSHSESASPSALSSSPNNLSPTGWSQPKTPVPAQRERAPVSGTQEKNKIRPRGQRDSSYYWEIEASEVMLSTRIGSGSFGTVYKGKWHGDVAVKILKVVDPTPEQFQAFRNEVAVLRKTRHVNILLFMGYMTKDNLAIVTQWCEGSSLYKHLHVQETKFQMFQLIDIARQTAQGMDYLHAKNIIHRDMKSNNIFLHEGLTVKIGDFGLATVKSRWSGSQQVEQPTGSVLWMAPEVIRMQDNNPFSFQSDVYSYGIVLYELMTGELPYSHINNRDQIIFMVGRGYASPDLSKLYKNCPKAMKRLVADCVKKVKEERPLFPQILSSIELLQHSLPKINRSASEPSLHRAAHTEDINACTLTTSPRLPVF
# Text: Reaction Biology Corporation (RBC) Kinase HotSpotSM service was utilized for cell-free biochemical kinase evaluation of the target compounds according to the reported assay protocol [46].
# [41] = target: T1, B-RAF^V600E (Homo sapiens, UniProt P15056, V600E); assay: HotSpot kinase assay (RBC), B-RAF^V600E; type: biochemical; conditions: for IC50: 10 µM ATP, 10-dose singlicate IC50 mode
# T1 construct: purchased Reaction Biology Corporation (RBC), Kinase HotSpot service
# T1 sequence (P15056 whole entry V600E): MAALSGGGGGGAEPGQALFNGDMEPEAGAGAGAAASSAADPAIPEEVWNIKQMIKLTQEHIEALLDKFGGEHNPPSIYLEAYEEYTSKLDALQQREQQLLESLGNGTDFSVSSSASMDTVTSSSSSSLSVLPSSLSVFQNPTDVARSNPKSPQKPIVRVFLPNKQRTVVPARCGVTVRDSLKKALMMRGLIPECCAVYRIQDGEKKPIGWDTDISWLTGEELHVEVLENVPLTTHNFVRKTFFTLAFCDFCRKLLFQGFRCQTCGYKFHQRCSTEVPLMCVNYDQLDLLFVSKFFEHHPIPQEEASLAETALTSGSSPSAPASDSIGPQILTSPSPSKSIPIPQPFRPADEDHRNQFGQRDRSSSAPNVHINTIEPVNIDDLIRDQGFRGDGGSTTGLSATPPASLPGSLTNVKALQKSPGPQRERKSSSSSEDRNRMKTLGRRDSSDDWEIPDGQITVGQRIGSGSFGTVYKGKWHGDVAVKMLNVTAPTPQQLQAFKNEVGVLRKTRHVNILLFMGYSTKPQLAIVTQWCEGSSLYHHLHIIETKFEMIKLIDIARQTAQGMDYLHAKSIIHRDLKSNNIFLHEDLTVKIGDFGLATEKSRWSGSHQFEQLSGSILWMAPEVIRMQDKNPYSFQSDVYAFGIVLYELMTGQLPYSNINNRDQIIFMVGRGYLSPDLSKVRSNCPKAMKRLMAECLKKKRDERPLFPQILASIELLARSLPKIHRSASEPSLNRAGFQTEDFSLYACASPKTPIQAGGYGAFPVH
structure (smiles),measurement,setting,value
"COc1ccc2nc(Nc3cccc(NC(=O)c4ccc(CN5CCN(C)CC5)c(C(F)(F)F)c4)c3)ccc2c1 [Compound 16a, N-(3-((6-methoxyquinolin-2-yl)amino)phenyl)-4-((4-methylpiperazin-1-yl)methyl)-3-(trifluoromethyl)benzamide]",GI50,[1],4880 nM
same,GI50,[2],2410 nM
same,GI50,[3],6520 nM
same,GI50,[4],6450 nM
same,GI50,[5],3410 nM
same,GI50,[6],1310 nM
same,GI50,[7],4900 nM
same,GI50,[8],6100 nM
same,GI50,[9],1360 nM
same,GI50,[10],5100 nM
same,GI50,[11],4880 nM
same,GI50,[12],5780 nM
same,GI50,[13],5250 nM
same,GI50,[14],5890 nM
same,GI50,[15],5240 nM
same,GI50,[16],5990 nM
same,GI50,[17],1880 nM
same,GI50,[18],2150 nM
same,GI50,[19],4600 nM
same,GI50,[20],1630 nM
same,GI50,[21],5820 nM
same,GI50,[22],3770 nM
same,GI50,[23],4140 nM
same,GI50,[24],2080 nM
same,GI50,[25],5460 nM
same,GI50,[26],7350 nM
same,GI50,[27],5680 nM
same,GI50,[28],1320 nM
same,GI50,[29],5490 nM
same,GI50,[30],6220 nM
same,GI50,[31],4120 nM
same,GI50,[32],5980 nM
same,GI50,[33],4320 nM
same,GI50,[34],5730 nM
same,GI50,[35],5060 nM
same,GI50,[36],1370 nM
same,GI50,[37],1840 nM
same,GI50,[38],2900 nM
same,GI50,[39],1560 nM
same,IC50,[40],103 ± 2.65 nM
same,"better kinase inhibition activity compared to 14a, C-RAF",[40]; ratio of IC50 versus 14a,1.5 fold
same,IC50,[41],193 ± 7.6 nM
same,"better kinase inhibition activity compared to 14a, B-RAF^V600E",[41]; ratio of IC50 versus 14a,2.6 fold
"CN1CCN(Cc2ccc(C(=O)Nc3cccc(Nc4ccc5c(O)cccc5n4)c3)cc2C(F)(F)F)CC1 [Compound 17a, N-(3-((5-hydroxyquinolin-2-yl)amino)phenyl)-4-((4-methylpiperazin-1-yl)methyl)-3-(trifluoromethyl)benzamide]",GI50,[1],2070 nM
same,GI50,[2],2700 nM
same,GI50,[3],3360 nM
same,GI50,[4],1730 nM
same,GI50,[5],1650 nM
same,GI50,[6],4390 nM
same,GI50,[7],2130 nM
same,GI50,[8],3240 nM
same,GI50,[9],1320 nM
same,GI50,[10],1680 nM
same,GI50,[11],1930 nM
same,GI50,[12],1990 nM
same,GI50,[13],1890 nM
same,GI50,[14],3100 nM
same,GI50,[15],4680 nM
same,GI50,[16],14400 nM
same,GI50,[17],2190 nM
same,GI50,[18],2910 nM
same,GI50,[19],19200 nM
same,GI50,[20],1860 nM
same,GI50,[21],3560 nM
same,GI50,[22],2380 nM
same,GI50,[23],2960 nM
same,GI50,[24],1670 nM
same,GI50,[25],2470 nM
same,GI50,[26],17500 nM
same,GI50,[27],1990 nM
same,GI50,[28],2060 nM
same,GI50,[29],2340 nM
same,GI50,[30],4700 nM
same,GI50,[31],10700 nM
same,GI50,[32],1920 nM
same,GI50,[33],7390 nM
same,GI50,[34],1780 nM
same,GI50,[35],2260 nM
same,GI50,[36],1740 nM
same,GI50,[37],1620 nM
same,GI50,[38],2530 nM
same,GI50,[39],1620 nM
same,IC50,[40],95 ± 17.3 nM
same,IC50,[41],137 ± 13.2 nM
